Literature values as cited in patent publication US8916356B2, “Measuring thrombin activity in whole blood” (Synapse B.V., priority 2005, dated 2014).

B1: abciximab (antibody, chains of the INN, looked up, V domains shown)
VH: EVQLQQSGTVLARPGASVKMSCEASGYTFTNYWMHWVKQRPGQGLEWIGAIYPGNSDTSYIQKFKGKAKLTAVTSTTSVYMELSSLTNEDSAVYYCTLYDGYYVFAYWGQGTLVTVSA
VL: EIVLTQSPVTLSVTPGDSVSLSCRASRDISNNLHWFQQTSHESPRLLIKYASQSMSGIPSRFSGSGSGTDFTLSINSVETEDFGMYFCQQTNSWPYTFGGGTKLEIK
modifications: Fab
notes: antiplatelet agent

Columns and labels:
[1] = test system: thrombin generation in platelet rich plasma (or whole blood); conditions: literature refs 13-16
[2] = literature ref 17

Row | Molecule | effect on thrombin generation [1] | effect on venous thrombosis [2]
1 | CCCCS(=O)(=O)N[C@@H](Cc1ccc(OCCCCC2CCNCC2)cc1)C(=O)O [MK383] | inhibit thrombin generation | –
2 | CC(=O)Oc1ccccc1C(=O)O [aspirin] | inhibit thrombin generation | prevents venous thrombosis
3 | COC(=O)[C@H](c1ccccc1Cl)N1CCc2sccc2C1 [clopidogrel] | inhibit thrombin generation | –
4 | B1 | inhibit thrombin generation | –
